Laboratory results: the supplement of paper PMC10307832

What was measured:
Assay in all cases: relative viability (nuclei count vs DMSO), 5 days (fraction); higher = more cells survive
[1] = compound: CC1=C(C=CC(=C1)[N+](=O)[O-])NS(=O)(=O)C2=C(C=CC(=C2)Cl)Cl [FH535] + CC(=O)c1c(C)c2cnc(Nc3ccc(N4CCNCC4)cn3)nc2n(C2CCCC2)c1=O [Palbociclib] (partner 0.5 µM)
Outline: (§1)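 One day after seeding in 1536-well plates, lung cancer cell lines were dosed by pin tool. Dosing was either single-drug or a fixed anchor-drug dose plus five library-drug doses (not always all listed) in √10 steps. After 5 days, nuclei were stained in one fix-and-stain step and counted on 4× images, and relative viability is the nuclei count of treated wells over that of vehicle wells, given as the median of duplicate plates.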

[2] = compound: CC1=C(C=CC(=C1)[N+](=O)[O-])NS(=O)(=O)C2=C(C=CC(=C2)Cl)Cl [FH535] + CC(C)C[C@H](NC(=O)[C@H](Cc1ccccc1)NC(=O)c1cnccn1)B(O)O [Bortezomib] (partner 0.002 µM)
Outline: as §1

[3] = compound: CC1=C(C=CC(=C1)[N+](=O)[O-])NS(=O)(=O)C2=C(C=CC(=C2)Cl)Cl [FH535] + CS(=O)(=O)CCNCc1ccc(-c2ccc3ncnc(Nc4ccc(OCc5cccc(F)c5)c(Cl)c4)c3c2)o1 [Lapatinib] (partner 2 µM)
Outline: as §1

[4] = compound: CC1=C(C=CC(=C1)[N+](=O)[O-])NS(=O)(=O)C2=C(C=CC(=C2)Cl)Cl [FH535] + CS(=O)(=O)N1CCN(Cc2cc3nc(-c4cccc5[nH]ncc45)nc(N4CCOCC4)c3s2)CC1 [Pictilisib] (partner 1 µM)
Outline: as §1

[5] = compound: CC1=C(C=CC(=C1)[N+](=O)[O-])NS(=O)(=O)C2=C(C=CC(=C2)Cl)Cl [FH535] + Nc1nc2[nH]cc(CCc3ccc(C(=O)N[C@@H](CCC(=O)O)C(=O)O)cc3)c2c(=O)[nH]1 [Pemetrexed] (partner 0.2 µM)
Outline: as §1

Row | Cell Line | relative viability ([1]; first compound 0.04 µM) | relative viability ([1]; first compound 0.1265 µM) | relative viability ([1]; first compound 0.4 µM) | relative viability ([1]; first compound 1.265 µM) | relative viability ([2]; first compound 0.04 µM) | relative viability ([2]; first compound 0.1265 µM) | relative viability ([2]; first compound 0.4 µM) | relative viability ([2]; first compound 1.265 µM) | relative viability ([3]; first compound 0.04 µM) | relative viability ([3]; first compound 0.1265 µM) | relative viability ([3]; first compound 0.4 µM) | relative viability ([3]; first compound 1.265 µM) | relative viability ([4]; first compound 0.04 µM) | relative viability ([4]; first compound 0.1265 µM) | relative viability ([4]; first compound 0.4 µM) | relative viability ([4]; first compound 1.265 µM) | relative viability ([5]; first compound 0.04 µM) | relative viability ([5]; first compound 0.1265 µM) | relative viability ([5]; first compound 0.4 µM) | relative viability ([5]; first compound 1.265 µM)
1 | NCI-H650 | 0.282 | 0.35 | 0.332 | 0.266 | 0.704 | 0.854 | 0.794 | 0.506 | 0.718 | 0.886 | 0.703 | 0.68 | 0.766 | 0.972 | 0.959 | 0.643 | 0.926 | 0.956 | 0.915 | 0.68
2 | NCI-H661 | 0.387 | 0.399 | 0.394 | 0.32 | 0.735 | 0.839 | 0.767 | 0.532 | 0.452 | 0.456 | 0.461 | 0.344 | 0.473 | 0.381 | 0.392 | 0.536 | 0.903 | 0.96 | 0.839 | 0.66
3 | NCI-H838 | 0.217 | 0.222 | 0.208 | 0.198 | 0.701 | 0.713 | 0.694 | 0.575 | 0.971 | 0.873 | 0.795 | 0.734 | 0.462 | 0.427 | 0.379 | 0.387 | 0.249 | 0.233 | 0.216 | 0.204
4 | NCI-H1355 | 0.394 | 0.436 | 0.4 | 0.324 | 1.09 | 1.2 | 1.15 | 1.03 | 0.92 | 1.01 | 0.933 | 0.883 | 0.362 | 0.503 | 0.378 | 0.33 | 1.03 | 1.05 | 0.984 | 0.91
5 | NCI-H1437 | 0.316 | 0.314 | 0.237 | 0.229 | 0.427 | 0.624 | 0.303 | 0.286 | 0.731 | 0.534 | 0.631 | 0.349 | 0.456 | 0.375 | 0.427 | 0.323 | 0.297 | 0.328 | 0.284 | 0.2
6 | NCI-H1650 | 0.325 | 0.323 | 0.303 | 0.212 | 0.198 | 0.195 | 0.184 | 0.2 | 0.642 | 0.73 | 0.74 | 0.784 | 0.503 | 0.56 | 0.545 | 0.594 | 0.408 | 0.371 | 0.355 | 0.306
7 | NCI-H1651 | 0.51 | 0.497 | 0.532 | 0.437 | 0.876 | 0.911 | 0.889 | 0.779 | 0.815 | 0.729 | 0.731 | 0.669 | 0.572 | 0.504 | 0.562 | 0.509 | 0.568 | 0.595 | 0.551 | 0.553
